{"source": "paper PMC3153577", "about": "(Biochemistry, 2011)", "key": {"MtDHFR-NADPH": {"biological_target": "T1, MtDHFR-NADPH (Mycobacterium tuberculosis, UniProt P9WNX1)", "T1 sequence (P9WNX1 1-161)": "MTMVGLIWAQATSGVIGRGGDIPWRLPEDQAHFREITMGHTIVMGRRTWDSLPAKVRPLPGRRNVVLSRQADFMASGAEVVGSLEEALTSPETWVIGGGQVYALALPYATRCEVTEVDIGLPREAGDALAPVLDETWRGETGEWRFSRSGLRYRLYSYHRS", "settings": "NADP^+ competition"}, "MtDHFR": {"biological_target": "T2, MtDHFR (Mycobacterium tuberculosis, UniProt P9WNX1)", "T2 sequence (P9WNX1 1-161)": "T1 sequence (P9WNX1 1-161)"}, "MtDHFR-NADP^+": {"biological_target": "T3, MtDHFR-NADP^+ (Mycobacterium tuberculosis, UniProt P9WNX1)", "T3 sequence (P9WNX1 1-161)": "T1 sequence (P9WNX1 1-161)", "assay_type": "binding", "settings": "for koff: competitor NADPH"}, "[1]": {"settings": "NADPH dissociation from MtDHFR-NADPH-THF"}, "[2]": {"settings": "NADPH dissociation from MtDHFR-NADPH"}}, "note": "Where two headings read alike, the source gives them in different places."}
{"smiles": "NC(=O)C1=CN([C@@H]2O[C@H](COP(=O)(O)OP(=O)(O)OC[C@H]3O[C@@H](n4cnc5c(N)ncnc54)[C@H](OP(=O)(O)O)[C@@H]3O)[C@@H](O)[C@H]2O)C=CC1", "note": "[NADPH, nicotinamide adenine dinucleotide phosphate (reduced form)]", "values": [{"measurement": "k−4, value obtained by analytical fitting", "setting": "MtDHFR-NADPH; [1]", "result": "1.7 ± 0.6", "unit": "s⁻¹"}, {"measurement": "k−10, value obtained by analytical fitting", "setting": "MtDHFR-NADPH; [2]", "result": "0.13 ± 0.01", "unit": "s⁻¹"}, {"measurement": "k4, best-fit value – global fitting", "setting": "MtDHFR; NADPH association to MtDHFR-THF, not determined experimentally", "result": 101, "unit": "µM⁻¹ s⁻¹"}, {"measurement": "k−10, best-fit value – global fitting", "setting": "MtDHFR; [2]", "result": "0.08 ± 0.01", "unit": "s⁻¹"}, {"measurement": "k−4, best-fit value – global fitting", "setting": "MtDHFR; [1]", "result": "1.1 ± 0.1", "unit": "s⁻¹"}]}
{"smiles": "NC(=O)c1ccc[n+]([C@H]2O[C@@H](COP(=O)([O-])OP(=O)(O)OC[C@H]3O[C@@H](n4cnc5c(N)ncnc54)[C@H](OP(=O)(O)O)[C@@H]3O)[C@H](O)[C@@H]2O)c1", "note": "[NADP^+, nicotinamide adenine dinucleotide phosphate (oxidized form)]", "values": [{"measurement": "k12, value obtained by analytical fitting", "setting": "MtDHFR-NADP^+; NADP^+ dissociation from MtDHFR-NADP^+-DHF, NADPH competition", "result": "7.8 ± 0.1", "unit": "s⁻¹"}, {"measurement": "k3, value obtained by analytical fitting", "setting": "MtDHFR-NADP^+; NADP^+ dissociation from MtDHFR-NADP^+-THF, NADPH competition", "result": "8.02 ± 0.02", "unit": "s⁻¹"}, {"measurement": "k9, value obtained by analytical fitting", "setting": "MtDHFR-NADP^+; NADP^+ dissociation from MtDHFR-NADP^+, NADPH competition", "result": "98 ± 4", "unit": "s⁻¹"}, {"measurement": "koff", "setting": "MtDHFR-NADP^+; NADP^+ from MtDHFR-NADP^+-DHF", "result": "7.8 ± 0.1", "unit": "s⁻¹"}, {"measurement": "koff", "setting": "MtDHFR-NADP^+; NADP^+ from MtDHFR-NADP^+-THF", "result": "8.0 ± 0.1", "unit": "s⁻¹"}, {"measurement": "koff", "setting": "MtDHFR-NADP^+; NADP^+ from MtDHFR-NADP^+", "result": "97.6 ± 4.1", "unit": "s⁻¹"}, {"measurement": "k−3, best-fit value – global fitting", "setting": "MtDHFR; NADP^+ association to MtDHFR-THF, not determined experimentally", "result": "109 ± 6", "unit": "µM⁻¹ s⁻¹"}, {"measurement": "k−9, best-fit value – global fitting", "setting": "MtDHFR; NADP^+ association to free enzyme, linked to k9 based on KNADP = 0.33 μM", "result": "268 ± 7", "unit": "µM⁻¹ s⁻¹"}, {"measurement": "k9, best-fit value – global fitting", "setting": "MtDHFR; NADP^+ dissociation from MtDHFR-NADP^+", "result": "81 ± 2", "unit": "s⁻¹"}, {"measurement": "k12, best-fit value – global fitting", "setting": "MtDHFR; NADP^+ dissociation from MtDHFR-NADP^+-DHF", "result": "2.1 ± 0.2", "unit": "s⁻¹"}, {"measurement": "k3, best-fit value – global fitting", "setting": "MtDHFR; NADP^+ dissociation from MtDHFR-NADP^+-THF", "result": "7.3 ± 0.1", "unit": "s⁻¹"}]}
